Where only a bound is given, the exact number is not on record here.

In one experiment the target is LRRK2 (Homo sapiens, UniProt Q5S007). As to the kind of experiment: LRRK2-LRRK2 G2019S-Assay (LanthaScreen Eu Kinase Binding Assay). Particulars: 5 nM LRRK2 or their mutants, 10 nM tracer 236, RT 1 h; read-out: LRRK2 Activities: IC50. How it is done: In the assay LanthaScreen™ Eu Kinase Binding Assay by Invitrogen Corporation (Carlsbad) the effect of invention of a compound on the phosphorylation is determined by measurement of fluorescence intensity emission ratio based on the binding and displacement of a proprietary, Alexa Fluor® 647-labeled, ATP-competitive kinase inhibitor scaffold (kinase tracer) to the kinase of interest. Binding of the tracer to the kinase is detected using a europium-labeled anti-tag antibody, which binds to the kinase of interest. Simultaneous binding of both the tracer and antibody to the kinase results in a high degree of FRET (fluorescence resonance energy transfer) from the europium (Eu) donor fluorophore to the Alexa Fluor® 647 acceptor fluorophore on the kinase tracer. Binding of an inhibitor to the kinase competes for binding with the tracer, resulting in a loss of FRET. The fluorescence intensity ratio is directly proportional to the amount of peptide phosphorylation.
Sequence of LRRK2 (Q5S007 970-2527 limits assumed): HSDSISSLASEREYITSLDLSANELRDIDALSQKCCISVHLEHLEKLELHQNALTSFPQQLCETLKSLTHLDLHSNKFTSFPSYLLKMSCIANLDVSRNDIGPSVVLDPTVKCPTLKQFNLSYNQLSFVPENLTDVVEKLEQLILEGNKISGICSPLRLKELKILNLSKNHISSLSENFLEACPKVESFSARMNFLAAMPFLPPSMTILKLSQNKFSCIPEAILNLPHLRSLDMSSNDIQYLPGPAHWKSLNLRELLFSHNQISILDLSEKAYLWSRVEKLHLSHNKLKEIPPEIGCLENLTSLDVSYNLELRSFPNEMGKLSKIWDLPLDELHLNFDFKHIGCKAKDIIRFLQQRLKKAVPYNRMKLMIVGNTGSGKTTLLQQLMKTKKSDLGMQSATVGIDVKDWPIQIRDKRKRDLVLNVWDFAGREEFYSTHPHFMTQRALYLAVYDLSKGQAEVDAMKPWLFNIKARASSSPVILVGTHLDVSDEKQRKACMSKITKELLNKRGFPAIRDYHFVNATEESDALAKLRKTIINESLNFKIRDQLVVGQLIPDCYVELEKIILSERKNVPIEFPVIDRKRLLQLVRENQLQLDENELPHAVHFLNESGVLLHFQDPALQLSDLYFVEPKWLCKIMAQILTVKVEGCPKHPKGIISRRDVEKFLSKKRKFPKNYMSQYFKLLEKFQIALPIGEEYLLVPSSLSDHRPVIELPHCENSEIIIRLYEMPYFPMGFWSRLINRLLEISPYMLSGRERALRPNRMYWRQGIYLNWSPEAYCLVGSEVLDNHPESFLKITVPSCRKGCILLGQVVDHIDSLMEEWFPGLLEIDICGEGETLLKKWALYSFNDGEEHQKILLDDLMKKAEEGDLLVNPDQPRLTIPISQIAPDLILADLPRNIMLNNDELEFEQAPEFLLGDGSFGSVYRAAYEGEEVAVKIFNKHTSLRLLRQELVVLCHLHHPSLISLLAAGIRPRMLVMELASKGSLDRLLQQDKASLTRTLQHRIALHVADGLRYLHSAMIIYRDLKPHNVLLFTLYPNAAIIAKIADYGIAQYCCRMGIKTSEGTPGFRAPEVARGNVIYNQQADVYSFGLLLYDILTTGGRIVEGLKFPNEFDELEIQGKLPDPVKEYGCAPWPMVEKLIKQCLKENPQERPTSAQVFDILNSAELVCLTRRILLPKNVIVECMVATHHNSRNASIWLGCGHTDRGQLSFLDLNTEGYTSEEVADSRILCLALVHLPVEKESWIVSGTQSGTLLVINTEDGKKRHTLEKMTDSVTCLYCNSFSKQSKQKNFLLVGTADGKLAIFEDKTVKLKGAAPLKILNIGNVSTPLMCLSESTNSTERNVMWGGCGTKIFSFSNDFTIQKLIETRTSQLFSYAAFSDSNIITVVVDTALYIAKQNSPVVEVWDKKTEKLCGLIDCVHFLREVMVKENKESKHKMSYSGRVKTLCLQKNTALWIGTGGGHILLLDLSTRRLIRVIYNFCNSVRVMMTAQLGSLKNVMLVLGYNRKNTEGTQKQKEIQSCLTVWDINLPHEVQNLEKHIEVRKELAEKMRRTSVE
To the wells of an 384 well small volume plate (Greiner, Frickenhausen) are added (i) the compound under test in 5% DMSO/distilled water (5 μl), (ii) 5 μl of the kinase antibody mixture resulting in a final concentration 5 nM LRRK2 or their mutants, 2 nM EU-Anti-GST antibody in 1× kinase buffer A. The reaction was started with addition of (iii) 5 μl resulting in a final concentration of 10 nM tracer 236. The assay plate was incubated at RT for 1 h and fluorescence intensitiy readings were collected using a TECAN M1000 at two wavelengthes of λex 340/λem 615 nm and λex 340/λm 665 nm with a delay time of 100 μs and an integration time of 200 μs after 60 minutes. The emission ratio was calculated by division of the acceptor/tracer emission ([…]) by the antibody/donor emission ([…]). The inhibitor concentration was plotted versus the emission ratio to determine the IC50 using XLFit 5.0 (IDBS, Guildford) to fit to a sigmoidal dose response curve with a variable slope.
Background: TR-FRET usually uses a lanthanide donor and a delayed reading to cut background.

In another experiment the target is T1, SYK kinase (Homo sapiens, UniProt P43405).
T1 construct: purchased Invitrogen, Carlsbad
In words: SYK Assay (OMNIA KINASE ASSAY, SOX peptide fluorescence). The class given is biochemical. Conditions: apparent Ki calculated from the IC50 using the Cheng-Prusoff equation; 1 mM ATP, 30° C.; read-out: SYK Activities: Ki. An outline of the steps:
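Apparent Ki values are derived by Cheng-Prusoff from IC50s of sigmoidal fits of reaction rate against compound concentration. Rates come from chelation-enhanced SOX fluorescence (λex 360/λem 485 nm, read every 30 s over 30 min) as the kinase phosphorylates 10 µM Omnia Tyr 7 peptide at 30 °C, with 1 mM ATP and 0.2 mM DTT.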

A word on the IC50: it is the concentration at which inhibition is half-maximal. In the case of `COc1ccc(-c2nc(Nc3ccc(N4CCOCC4)cc3)c3[nH]ncc3n2)cc1OC` [Example #25, 5-(3,4-dimethoxyphenyl)-N-(4-morpholinophenyl)-1H-pyrazolo[4,3-d]pyrimidin-7-amine], the IC50 at LRRK2 lay within 100 to 1000 nM. At SYK kinase, the Ki was less than 10 nM.
The corresponding values for `COc1ccc(-c2nc(Nc3ccc4c(c3)NC(=O)CO4)c3[nH]ncc3n2)cc1OC` [Example #26, 6-((5-(3,4-dimethoxyphenyl)-1H-pyrazolo[4,3-d]pyrimidin-7-yl)amino)-2H-benzo[b][1,4]oxazin-3(4H)-one] are 10 to 100 nM and 10 to 100 nM.
For `CN1CCC(c2nc(Nc3ccc4cn[nH]c4c3)c3[nH]ncc3n2)CC1` [Example #27, N-(1H-indazol-6-yl)-5-(1-methylpiperidin-4-yl)-1H-pyrazolo[4,3-d]pyrimidin-7-amine], the IC50 at LRRK2 fell in the range of 100 to 1000 nM. For the same molecule, the Ki on SYK kinase was 10 to 100 nM.
On the same counts, the results for `CN1CCC(c2nc(Nc3ccc(N(C)C)cc3)c3[nH]ncc3n2)CC1` [Example #28, N1,N1-dimethyl-N4-(5-(1-methylpiperidin-4-yl)-1H-pyrazolo[4,3-d]pyrimidin-7-yl)benzene-1,4-diamine] are 100 to 1000 nM and 10 to 100 nM.
In the case of `COc1ccc(Nc2nc(-c3ccc(N4CCCC4)nc3)nc3cn[nH]c23)cc1OC` [Example #32, N-(3,4-dimethoxyphenyl)-5-(6-(pyrrolidin-1-yl)pyridin-3-yl)-1H-pyrazolo[4,3-d]pyrimidin-7-amine], on LRRK2, the concentration for half-maximal inhibition (IC50) was in the range of 100 to 1000 nM. In addition, at SYK kinase, the Ki is 10 to 100 nM.
In the case of `c1cc(N2CCOCC2)ccc1Nc1nc(-c2ccc(N3CCCC3)nc2)nc2cn[nH]c12` [Example #33, N-(4-morpholinophenyl)-5-(6-(pyrrolidin-1-yl)pyridin-3-yl)-1H-pyrazolo[4,3-d]pyrimidin-7-amine], the IC50 at LRRK2 was 100 to 1000 nM. The Ki at SYK kinase was less than 10 nM.
The corresponding values for `c1ccc(-c2nc(Nc3ccc4cn[nH]c4c3)c3[nH]ncc3n2)cc1` [Example #36, N-(1H-indazol-6-yl)-5-phenyl-1H-pyrazolo[4,3-d]pyrimidin-7-amine] are less than 10 nM and less than 10 nM.
The corresponding values for `O=C1COc2ccc(Nc3nc(-c4ccccc4)nc4cn[nH]c34)cc2N1` [Example #37, 6-((5-phenyl-1H-pyrazolo[4,3-d]pyrimidin-7-yl)amino)-2H-benzo[b][1,4]oxazin-3(4H)-one] are 10 to 100 nM and 10 to 100 nM.
On the same counts, the results for `COc1ccc(-c2nc(Nc3ccc4[nH]ncc4c3)c3[nH]ncc3n2)cc1OC` [Example #40, 5-(3,4-dimethoxyphenyl)-N-(1H-indazol-5-yl)-1H-pyrazolo[4,3-d]pyrimidin-7-amine] are 100 to 1000 nM and 10 to 100 nM.
`O=C1COc2ccc(Nc3nc(-c4ccc(N5CCCC5)nc4)nc4cn[nH]c34)cc2N1` [Example #47, 6-((5-(6-(pyrrolidin-1-yl)pyridin-3-yl)-1H-pyrazolo[4,3-d]pyrimidin-7-yl)amino)-2H-benzo[b][1,4]oxazin-3(4H)-one]: at LRRK2, the IC50 was in the range of 100 to 1000 nM. The Ki on SYK kinase was 10 to 100 nM.
With `c1cc(Nc2nc(-c3ccc(N4CCCC4)nc3)nc3cn[nH]c23)n[nH]1` [Example #48, N-(1H-pyrazol-3-yl)-5-(6-(pyrrolidin-1-yl)pyridin-3-yl)-1H-pyrazolo[4,3-d]pyrimidin-7-amine], at LRRK2, the IC50 is 100 to 1000 nM. Further, on SYK kinase, the Ki was 100 to 1000 nM.
Turning to `CN1CCC(c2nc(Nc3ccc4[nH]ncc4c3)c3[nH]ncc3n2)CC1` [Example #50, N-(1H-indazol-5-yl)-5-(1-methylpiperidin-4-yl)-1H-pyrazolo[4,3-d]pyrimidin-7-amine], the IC50 on LRRK2 lay in the range of 100 to 1000 nM. At SYK kinase, the Ki is 10 to 100 nM.
The corresponding values for `COc1ccc(Nc2nc(C3CCN(C)CC3)nc3cn[nH]c23)cc1OC` [Example #51, N-(3,4-dimethoxyphenyl)-5-(1-methylpiperidin-4-yl)-1H-pyrazolo[4,3-d]pyrimidin-7-amine] are 100 to 1000 nM and 10 to 100 nM.
The corresponding values for `COc1ccc(-c2nc(Nc3ccc(N4CCOCC4)cc3)c3[nH]ncc3n2)cc1` [Example #59, 5-(4-methoxyphenyl)-N-(4-morpholinophenyl)-1H-pyrazolo[4,3-d]pyrimidin-7-amine] are 10 to 100 nM and less than 10 nM.
In the case of `COc1cccc(-c2nc(Nc3ccc(OC)c(OC)c3)c3[nH]ncc3n2)c1` [Example #60, N-(3,4-dimethoxyphenyl)-5-(3-methoxyphenyl)-1H-pyrazolo[4,3-d]pyrimidin-7-amine], the IC50 on LRRK2 fell in the range of 100 to 1000 nM. On SYK kinase, the Ki is less than 10 nM.
The corresponding values for `COc1cccc(-c2nc(Nc3ccc(N4CCOCC4)cc3)c3[nH]ncc3n2)c1` [Example #61, 5-(3-methoxyphenyl)-N-(4-morpholinophenyl)-1H-pyrazolo[4,3-d]pyrimidin-7-amine] are 100 to 1000 nM and less than 10 nM.
The corresponding values for `COc1cccc(-c2nc(Nc3ccc(N(C)C)cc3)c3[nH]ncc3n2)c1` [Example #63, N1-(5-(3-methoxyphenyl)-1H-pyrazolo[4,3-d]pyrimidin-7-yl)-N4,N4-dimethylbenzene-1,4-diamine] are 100 to 1000 nM and less than 10 nM.
On the same counts, the results for `c1ccc(-c2nc(Nc3ccc4c(c3)NCCO4)c3[nH]ncc3n2)cc1` [Example #64, N-(5-phenyl-1H-pyrazolo[4,3-d]pyrimidin-7-yl)-3,4-dihydro-2H-benzo[b][1,4]oxazin-6-amine] are 10 to 100 nM and less than 10 nM.
On to `Oc1cccc(Nc2nc(-c3ccccc3)nc3cn[nH]c23)c1` [Example #65, 3-((5-phenyl-1H-pyrazolo[4,3-d]pyrimidin-7-yl)amino)phenol], for which the IC50 on LRRK2 was in the range of 100 to 1000 nM. Besides, the Ki at SYK kinase is 10 to 100 nM.
For `COc1ccc(-c2nc(Nc3ccc(N4CCN(C)CC4)cc3)c3[nH]ncc3n2)cc1` [Example #66, 5-(4-methoxyphenyl)-N-(4-(4-methylpiperazin-1-yl)phenyl)-1H-pyrazolo[4,3-d]pyrimidin-7-amine], the half-inhibitory concentration (IC50) at LRRK2 fell in the range of 100 to 1000 nM. Besides, the Ki on SYK kinase is less than 10 nM.
On the same counts, the results for `COc1cccc(-c2nc(Nc3ccc4cn[nH]c4c3)c3[nH]ncc3n2)c1` [Example #67, N-(1H-indazol-6-yl)-5-(3-methoxyphenyl)-1H-pyrazolo[4,3-d]pyrimidin-7-amine] are 100 to 1000 nM and less than 10 nM.
As for `c1csc(-c2nc(Nc3ccc(N4CCOCC4)cc3)c3[nH]ncc3n2)c1` [Example #69, N-(4-morpholinophenyl)-5-(thiophen-2-yl)-1H-pyrazolo[4,3-d]pyrimidin-7-amine], the IC50 at LRRK2 fell in the range of 10 to 100 nM. Also, the Ki at SYK kinase was less than 10 nM.
On the same counts, the results for `CN(C)c1ccc(Nc2nc(-c3cccs3)nc3cn[nH]c23)cc1` [Example #71, N1,N1-dimethyl-N4-(5-(thiophen-2-yl)-1H-pyrazolo[4,3-d]pyrimidin-7-yl)benzene-1,4-diamine] are 10 to 100 nM and less than 10 nM.
On the same counts, the results for `COc1ccc(Nc2nc(-c3ccsc3)nc3cn[nH]c23)cc1OC` [Example #72, N-(3,4-dimethoxyphenyl)-5-(thiophen-3-yl)-1H-pyrazolo[4,3-d]pyrimidin-7-amine] are 10 to 100 nM and less than 10 nM.
On the same counts, the results for `c1cc(-c2nc(Nc3ccc(N4CCOCC4)cc3)c3[nH]ncc3n2)cs1` [Example #73, N-(4-morpholinophenyl)-5-(thiophen-3-yl)-1H-pyrazolo[4,3-d]pyrimidin-7-amine] are 10 to 100 nM and less than 10 nM.
In the case of `CN(C)c1ccc(Nc2nc(-c3ccsc3)nc3cn[nH]c23)cc1` [Example #75, N1,N1-dimethyl-N4-(5-(thiophen-3-yl)-1H-pyrazolo[4,3-d]pyrimidin-7-yl)benzene-1,4-diamine], the IC50 at LRRK2 is 10 to 100 nM. For the same molecule, at SYK kinase, the Ki was less than 10 nM.
Consider `c1cc(-c2nc(Nc3ccc4cn[nH]c4c3)c3[nH]ncc3n2)cs1` [Example #76, N-(1H-indazol-6-yl)-5-(thiophen-3-yl)-1H-pyrazolo[4,3-d]pyrimidin-7-amine], for which the IC50 on LRRK2 lay in the range of 10 to 100 nM. For the same molecule, the Ki at SYK kinase is less than 10 nM.
For `c1cc(-c2nc(Nc3cc(C4CC4)[nH]n3)c3[nH]ncc3n2)cs1` [Example #77, N-(5-cyclopropyl-1H-pyrazol-3-yl)-5-(thiophen-3-yl)-1H-pyrazolo[4,3-d]pyrimidin-7-amine], on LRRK2, the IC50 lay within 10 to 100 nM. Further, the Ki at SYK kinase is 10 to 100 nM.

Source of the values: US9802937B2, “Substituted pyrazolo{4,3-D}pyrimidines as kinase inhibitors” (ORIGENIS GMBH, priority 2011, dated 2017).
